Data on four compounds can be found in patent US20110129463A1, “Quinazolin-4(3A)-One Derivatives and Methods of Use Thereof” (Proteologics, Ltd., priority 2009, published 2011).

One test concerns EAE. Briefly: EAE model for multiple sclerosis, clinical score. The format is in vivo, CSJL/F1 mice. Here is the method:
The EAE model in CSJL/F1 mice is an established model for multiple sclerosis. Disease is induced in all mice by the injection of the encephalitogenic emulsion (MSCH/CFA, 0.05 ml injected into the left foot-pad of each mouse). Treatment with Compound A at 10 and 20 mg/kg or solvent (5% DMSO, 10% PEG400, 5% Solutol HS15, 5% Tween 80) by intraperitoneal injection, was started from day 1 of the study and administered twice daily in the first 9 days and then once daily until the end of the study. Scoring of EAE clinical signs were initiated from the 10th day post-EAE induction and continued daily. The clinical signs were recorded according to a grading system described in the table 1.

Another test relates to A375 melanoma cell line. The experiment in a line: TRANSWELL cell migration of A375 melanoma cells. The format is cell-based. The conditions noted are these: Homo sapiens, A-375, 24 hours, read-out: IC50 of inhibitory effect on cell-migration. The method, then: The A375 cells were cultured with RPMI and 10% FBS. The cells were starved for 24 hours in medium without FBS. At the end of the starvation, 5×10^4 cells in medium without FBS were placed in the upper chamber of 24-well, TRANSWELL apparatus (Corning TRANSWELL® polycarbonate membrane inserts, 5 μm pore size with solvent (DMSO/PEG400) or different concentrations of Compound A, B, C or D. Medium with FBS and compound A, B, C or D was added to the bottom chamber. Twenty-four hours later the cells from the upper chamber were removed with a cotton swab. Cells that migrated to the lower side of the membrane were stained with Calcein-AM (Sigma) and images were taken with a fluorescence microscope. The number of migrating cells was quantified by Image J software and the IC50 values were calculated using Prism software (Graphpad).

Another test has as its system A375 cells. Briefly: Viability of A375 cancer cells (WST-1 reagent). Type of test: cell-based. The conditions noted are these: viability 72 hours post treatment. Here is the method:
A375 cells (CRL-1619, Melanoma cancer cells, American Type Culture Collection (“ATCC”), Manassas Va., USA) were cultured with RPMI and 10% FBS (300 cells per well). Twenty-four hours after seeding the cells were treated with different concentrations of Compound A. Viability of the cells was tested seventy-two hours post treatment using WST-1 reagent (Roche). The LD50s were calculated using Prism software (Graphpad). Compound A killed the A375 cancer cells with LD50 of 20 μM (FIG. 2A).

A further test deals with oxazolone-induced DTH. The experiment in a line: Oxazolone-induced delayed-type hypersensitivity (DTH), ear swelling. The conditions noted are these: oral, 1 hour before oxazolone challenge; compared with the control. The format is in vivo, BALB/c mice. An excerpt: A delayed-type hypersensitivity (DTH) reaction is an expression of cell-mediated immunity and plays a major role in the pathology and chronicity of many inflammatory disorders. Delayed-type hypersensitivity (DTH) reactions can be induced by various allergens, including oxazolone, 2,4-dinitrofluorobenzene (DNFB) and sheep red blood cells (SRBCs). One of the most characteristic DTH phenomena is contact hypersensitivity, which is characterized by swelling and by increased tissue levels of cytokines. Contact hypersensitivity (CHS) is a T cell-mediated immune reaction in response to cutaneous sensitization and challenge with reactive haptens that are capable of binding directly to soluble and cell-associated proteins and recognized by T cells in the context of self-MHC products. The cells that recognize antigen-protein complex in the skin are the Langerhans cells (LCs). After topically allergen application, Langerhans cells (LCs), the major antigen-presenting cells (APCs) for the induction of immune responses in skin, show enhanced expression of surface MHC class II molecules, and start to emigrate from the skin to regional lymph nodes where specific lymphocyte activation is thought to occur. After a second contact with the hapten, T cells are first recruited into tissues and then activated by antigen-presenting cells to produce cytokines that mediate local inflammation. Myeloperoxidase (MPO) is an enzyme exclusively present in neutrophil granules, which is commonly used as an index of granulocyte infiltration, and its inhibition is indicative of an anti-inflammatory action.
The goal of the present study is to examine the effects of Compounds A, B and C on oxazolone-induced DTH. […]
Ear swelling response was determined by ear thickness measured with a micrometer before and 24 hours after oxazolone challenge and reported as the mean change in ear thickness (ΔT±S.E.M.). Percent suppression of ear swelling response was calculated as % suppression=[1−(ΔT of sensitized mice exposed to experimental treatment/ΔT of sensitized mice exposed to vehicle treatment)]×100. […]

Test [1] concerns D122 Lewis lung cancer cells. The experiment in a line: Formation of lung cancer metastasis, D122 cells injected into tail vein. The conditions noted are these: 20 mg/kg intraperitoneal twice daily for 28 days. Type of test: in vivo, C57BL mice. The method, then: Suppressive activity against formation of lung cancer metastasis was tested using D122 Lewis lung cancer cells injected into the tail vein of male C57BL mice. Animals were treated twice daily by intraperitoneal injection of Compound A at 20 mg/kg or solvent (5% DMSO, 10% PEG400, 5% Solutol HS15, 5% Tween 80). Treatment was continued for 28 days. On day 33, animals were sacrificed, lungs were removed and weighed. When the Compound A and vehicle groups are compared, there is about a 50% decrease in added lung weight in the Compound A group (FIG. 3). The average weight gain in the control group was 250 mg while in the Compound A group it was only 125 mg. Analyzing the data using two tailed T test indicate a the data is significant (pValue=0.0085). The effect seen following administration of Compound A, supports the claim that this compound has anti-metastatic activity.

Structures are written as SMILES.

As for `O=c1c2ccccc2nc(/C=C/c2ccc(O)cc2)n1-c1cccc([N+](=O)[O-])c1` [Compound A, 2-[2-(4-Hydroxyphenyl)-vinyl]-3-(3-nitrophenyl)-4-quinazolone], the “effect on EAE clinical signs” value in the test on EAE (10 mg/kg intraperitoneal) is reported as “No effect”. The “EAE clinical signs relative to the score for water and vehicle controls” value with EAE (20 mg/kg intraperitoneal) is listed as “about half”. Further, in the test with A375 melanoma cell line, the IC50 was found to be 100 nM. Also, in the test on A375 cells, the “LD50 (killing of A375 cancer cells)” value worked out at 20 µM. Moreover, in the test on oxazolone-induced DTH, the “anti-inflammatory activity in DTH study (FIG. 7)” value (“anti-inflammatory activity” for short) is reported as “same anti-inflammatory activity as the control”. Also, the “average weight gain (added lung weight)” value in test [1] (day 33, control group 250 mg) worked out at 125 mg. In addition, the “decrease in added lung weight vs vehicle group” value in test [1] (lungs weighed on day 33) is reported as approximately 50%.

On to `COc1ccc(/C=C/c2nc3ccccc3c(=O)n2-c2cccc([N+](=O)[O-])c2)cc1` [Compound B, (E)-2-(4-methoxystyryl)-3-(3-nitrophenyl)quinazolin-4(3H)-one], for which, in the test on A375 melanoma cell line, the IC50 amounted to 45 nM. Further, the “anti-inflammatory activity” value in the test on oxazolone-induced DTH is listed as “same anti-inflammatory activity as the control”.

Regarding `O=c1c2ccccc2nc(/C=C/c2ccc(Br)cc2)n1-c1cccc([N+](=O)[O-])c1` [Compound C, (E)-2-(4-bromostyryl)-3-(3-nitrophenyl)quinazolin-4(3H)-one], the IC50 in the test on A375 melanoma cell line amounted to 920 nM. In the test on oxazolone-induced DTH, the “anti-inflammatory activity” value is on record as “same anti-inflammatory activity as the control”.

In the case of `Cn1ccc(/C=C/c2nc3ccccc3c(=O)n2-c2cccc(N(O)O)c2)n1` [Compound D, (E)-3-(3-(dihydroxyamino)phenyl)-2-(2-(1-methyl-1H-pyrazol-3-yl)vinyl)quinazolin-4(3H)-one], the IC50 with A375 melanoma cell line was determined as 61 nM.
